Earlier results on 19 molecules are cited in patent US20250228953A1, “INTRACELLULAR TARGETING OF OLIGONUCLEOTIDES” (Entrada Therapeutics, Inc., priority 2021, published 2025).

The structures appear in SMILES notation.

The conditions of series [1]: as reported by Tien, cited from earlier work; for SASA, Empirical / SASA, Theoretical: et al.
The conditions of series [2]: amino acid hydrophobicity scale; cited from earlier work.

As for `C[C@H](N)C(=O)O` [Ala, Alanine], in series [1], the “SASA, Empirical” value was 121.0 Å^2; the “SASA, Theoretical” value is reported as 129.0 Å^2; the “SASA, Miller et al. (1987)” value was 113.0 Å^2; the “SASA, Rose et al. (1985)” value is 118.1 Å^2. For the same molecule, in series [2], the “Hydrophobicity, Eisenberg and Weiss” value is on record as 0.25; the “Hydrophobicity, Engleman et al.” value is 1.6; the “Hydrophobicity, Janin” value is listed as 0.3; the “Hydrophobicity, Kyrie and Doolittle” value was 1.8.
`N=C(N)NCCC[C@H](N)C(=O)O` [Arg, Arginine]: in series [2], the “Hydrophobicity, Eisenberg and Weiss” value is on record as −1.80; the “Hydrophobicity, Engleman et al.” value is reported as −12.3; the “Hydrophobicity, Janin” value is on record as −1.4; the “Hydrophobicity, Kyrie and Doolittle” value is given as −4.5.
On to `N=C(N)NCCC[C@H](N)C(=O)O` [Arginine, arginine], for which, in series [1], the “SASA, Empirical” value is given as 265.0 Å^2; the “SASA, Theoretical” value is given as 274.0 Å^2; the “SASA, Miller et al. (1987)” value was 241.0 Å^2; the “SASA, Rose et al. (1985)” value is given as 256.0 Å^2.
With `NC(=O)C[C@H](N)C(=O)O` [Asn, Asparagine], in series [1], the “SASA, Empirical” value is 187.0 Å^2; the “SASA, Theoretical” value is 195.0 Å^2; the “SASA, Miller et al. (1987)” value is 158.0 Å^2; the “SASA, Rose et al. (1985)” value was 165.5 Å^2. Also, in series [2], the “Hydrophobicity, Eisenberg and Weiss” value was −0.64; the “Hydrophobicity, Engleman et al.” value was −4.8; the “Hydrophobicity, Janin” value was −0.5; the “Hydrophobicity, Kyrie and Doolittle” value is −3.5.
For the molecule `N[C@@H](CC(=O)O)C(=O)O` [Asp, Aspartic acid], in series [1], the “SASA, Empirical” value is 187.0 Å^2; the “SASA, Theoretical” value is reported as 193.0 Å^2; the “SASA, Miller et al. (1987)” value is 151.0 Å^2; the “SASA, Rose et al. (1985)” value was 158.7 Å^2. Also, in series [2], the “Hydrophobicity, Eisenberg and Weiss” value is on record as −0.72; the “Hydrophobicity, Engleman et al.” value was −9.2; the “Hydrophobicity, Janin” value is −0.6; the “Hydrophobicity, Kyrie and Doolittle” value is listed as −3.5.
Regarding `N[C@@H](CS)C(=O)O` [Cys, Cysteine], in series [1], the “SASA, Empirical” value is on record as 148.0 Å^2; the “SASA, Theoretical” value is reported as 167.0 Å^2; the “SASA, Miller et al. (1987)” value is listed as 140.0 Å^2; the “SASA, Rose et al. (1985)” value is given as 146.1 Å^2. Moreover, in series [2], the “Hydrophobicity, Eisenberg and Weiss” value is listed as 0.04; the “Hydrophobicity, Engleman et al.” value is 2.0; the “Hydrophobicity, Janin” value was 0.9; the “Hydrophobicity, Kyrie and Doolittle” value is 2.5.
As to `N[C@@H](CCC(=O)O)C(=O)O` [Glu, Glutamic acid], in series [1], the “SASA, Empirical” value was 214.0 Å^2; the “SASA, Miller et al. (1987)” value is listed as 183.0 Å^2; the “SASA, Rose et al. (1985)” value was 186.2 Å^2. Also, in series [2], the “Hydrophobicity, Eisenberg and Weiss” value was −0.62; the “Hydrophobicity, Engleman et al.” value was −8.2; the “Hydrophobicity, Janin” value is listed as −0.7; the “Hydrophobicity, Kyrie and Doolittle” value is on record as −3.5.
In the case of `NCC(=O)O` [Gly, Glycine], in series [1], the “SASA, Empirical” value was 97.0 Å^2; the “SASA, Theoretical” value is on record as 104.0 Å^2; the “SASA, Miller et al. (1987)” value is reported as 85.0 Å^2; the “SASA, Rose et al. (1985)” value is listed as 88.1 Å^2.
In the case of `N[C@@H](Cc1c[nH]cn1)C(=O)O` [His, Histidine], in series [1], the “SASA, Empirical” value is listed as 216.0 Å^2; the “SASA, Theoretical” value is recorded as 224.0 Å^2; the “SASA, Miller et al. (1987)” value is reported as 194.0 Å^2; the “SASA, Rose et al. (1985)” value is recorded as 202.5 Å^2. In addition, in series [2], the “Hydrophobicity, Eisenberg and Weiss” value is given as −0.40; the “Hydrophobicity, Engleman et al.” value is listed as −3.0; the “Hydrophobicity, Janin” value is reported as −0.1; the “Hydrophobicity, Kyrie and Doolittle” value is −3.2.
Take `CC[C@H](C)[C@H](N)C(=O)O` [Ile, Isoleucine]: in series [1], the “SASA, Empirical” value is given as 195.0 Å^2; the “SASA, Theoretical” value is recorded as 197.0 Å^2; the “SASA, Miller et al. (1987)” value was 182.0 Å^2; the “SASA, Rose et al. (1985)” value is 181.0 Å^2. Moreover, in series [2], the “Hydrophobicity, Eisenberg and Weiss” value was 0.73; the “Hydrophobicity, Engleman et al.” value is 3.1; the “Hydrophobicity, Janin” value is 0.7; the “Hydrophobicity, Kyrie and Doolittle” value is recorded as 4.5.
For the molecule `NCCCC[C@H](N)C(=O)O` [Lys, Lysine], in series [1], the “SASA, Empirical” value was 230.0 Å^2; the “SASA, Theoretical” value is 236.0 Å^2; the “SASA, Miller et al. (1987)” value is 211.0 Å^2; the “SASA, Rose et al. (1985)” value is listed as 225.8 Å^2. Further, in series [2], the “Hydrophobicity, Eisenberg and Weiss” value is −1.10; the “Hydrophobicity, Engleman et al.” value is −8.8; the “Hydrophobicity, Janin” value was −1.8; the “Hydrophobicity, Kyrie and Doolittle” value is on record as −3.9.
Turning to `CSCC[C@H](N)C(=O)O` [Met, Methionine], in series [1], the “SASA, Empirical” value is 203.0 Å^2; the “SASA, Theoretical” value is recorded as 224.0 Å^2; the “SASA, Miller et al. (1987)” value is 204.0 Å^2; the “SASA, Rose et al. (1985)” value was 203.4 Å^2. In series [2], the “Hydrophobicity, Eisenberg and Weiss” value is 0.26; the “Hydrophobicity, Engleman et al.” value is on record as 3.4; the “Hydrophobicity, Janin” value is 0.4; the “Hydrophobicity, Kyrie and Doolittle” value is given as 1.9.
As to `N[C@@H](Cc1ccccc1)C(=O)O` [Phe, Phenylalanine], in series [1], the “SASA, Empirical” value was 228.0 Å^2; the “SASA, Theoretical” value is recorded as 240.0 Å^2; the “SASA, Miller et al. (1987)” value is 218.0 Å^2; the “SASA, Rose et al. (1985)” value is 222.8 Å^2. For the same molecule, in series [2], the “Hydrophobicity, Eisenberg and Weiss” value is reported as 0.61; the “Hydrophobicity, Engleman et al.” value is on record as 3.7; the “Hydrophobicity, Janin” value was 0.5; the “Hydrophobicity, Kyrie and Doolittle” value is reported as 2.8.
Regarding `O=C(O)[C@@H]1CCCN1` [Pro, Proline], in series [1], the “SASA, Empirical” value was 154.0 Å^2; the “SASA, Miller et al. (1987)” value is reported as 143.0 Å^2; the “SASA, Rose et al. (1985)” value is 146.8 Å^2.
Turning to `N[C@@H](CO)C(=O)O` [Ser, Serine], in series [1], the “SASA, Empirical” value is listed as 143.0 Å^2; the “SASA, Theoretical” value is given as 155.0 Å^2; the “SASA, Miller et al. (1987)” value is recorded as 122.0 Å^2; the “SASA, Rose et al. (1985)” value is given as 129.8 Å^2. Further, in series [2], the “Hydrophobicity, Eisenberg and Weiss” value is −0.26; the “Hydrophobicity, Engleman et al.” value is 0.6; the “Hydrophobicity, Janin” value was −0.1; the “Hydrophobicity, Kyrie and Doolittle” value is recorded as −0.8.
For the molecule `C[C@@H](O)[C@H](N)C(=O)O` [Thr, Threonine], in series [1], the “SASA, Empirical” value is 163.0 Å^2; the “SASA, Theoretical” value is listed as 172.0 Å^2; the “SASA, Miller et al. (1987)” value was 146.0 Å^2; the “SASA, Rose et al. (1985)” value is 152.5 Å^2. Further, in series [2], the “Hydrophobicity, Eisenberg and Weiss” value is given as −0.18; the “Hydrophobicity, Engleman et al.” value is 1.2; the “Hydrophobicity, Janin” value is given as −0.2; the “Hydrophobicity, Kyrie and Doolittle” value is recorded as −0.7.
Regarding `N[C@@H](Cc1c[nH]c2ccccc12)C(=O)O` [Trp, Tryptophan], in series [1], the “SASA, Empirical” value is given as 264.0 Å^2; the “SASA, Theoretical” value is given as 285.0 Å^2; the “SASA, Miller et al. (1987)” value is recorded as 259.0 Å^2; the “SASA, Rose et al. (1985)” value is 266.3 Å^2. In addition, in series [2], the “Hydrophobicity, Eisenberg and Weiss” value is 0.37; the “Hydrophobicity, Engleman et al.” value is given as 1.9; the “Hydrophobicity, Janin” value is listed as 0.3; the “Hydrophobicity, Kyrie and Doolittle” value is given as −0.9.
For the molecule `N[C@@H](Cc1ccc(O)cc1)C(=O)O` [Tyr, Tyrosine], in series [1], the “SASA, Empirical” value was 255.0 Å^2; the “SASA, Theoretical” value is 263.0 Å^2; the “SASA, Miller et al. (1987)” value is given as 229.0 Å^2; the “SASA, Rose et al. (1985)” value is given as 236.8 Å^2. In addition, in series [2], the “Hydrophobicity, Eisenberg and Weiss” value was 0.02; the “Hydrophobicity, Engleman et al.” value is given as −0.7; the “Hydrophobicity, Janin” value is given as −0.4; the “Hydrophobicity, Kyrie and Doolittle” value is listed as −1.3.
On to `CC(C)[C@H](N)C(=O)O` [Val, Valine], for which, in series [1], the “SASA, Empirical” value is 165.0 Å^2; the “SASA, Theoretical” value was 174.0 Å^2; the “SASA, Miller et al. (1987)” value is on record as 160.0 Å^2; the “SASA, Rose et al. (1985)” value was 164.5 Å^2. Further, in series [2], the “Hydrophobicity, Eisenberg and Weiss” value is listed as 0.54; the “Hydrophobicity, Engleman et al.” value is recorded as 2.6; the “Hydrophobicity, Janin” value is 0.6; the “Hydrophobicity, Kyrie and Doolittle” value is on record as 4.2.
